In this series the test system is CCRIS mutagenicity, Ames/micronucleus/aberration tests. As to the kind of experiment: CCRIS mutagenicity studies.
The mark [1] stands for this setting: Test System: AMES SALMONELLA TYPHIMURIUM, Strain/Indicator: TA98, Metabolic Activation: NONE, Method: STANDARD PLATE.
The mark [2] stands for this setting: Test System: AMES SALMONELLA TYPHIMURIUM, Strain/Indicator: TA100, Metabolic Activation: NONE, Method: STANDARD PLATE.
Where [3] appears, read: Test System: AMES SALMONELLA TYPHIMURIUM, Strain/Indicator: TA100, Metabolic Activation: NONE, Method: PREINCUBATION
Setting [4] is: Test System: AMES SALMONELLA TYPHIMURIUM, Strain/Indicator: TA98, Metabolic Activation: NONE, Method: PREINCUBATION

Calls of active or inactive are those of the source. How the calls were made is not given here.

As to `CCC/C=C/C(=O)O[C@@H]1C(C)(C)C[C@@H]2C34CC3(C(C=O)=C[C@]12O)[C@@H](O)OC4=O` (stereo not given in full), the mutagenic call runs as follows: (Test System: AMES SALMONELLA TYPHIMURIUM, Strain/Indicator: TA98, Metabolic Activation: NONE, Method: SPOT TEST) “active; positive”; under setting [1], “active; positive”; (Test System: AMES SALMONELLA TYPHIMURIUM, Strain/Indicator: TA100, Metabolic Activation: NONE, Method: SPOT TEST) “inactive; negative”; under setting [2], “active; positive”; (Test System: AMES SALMONELLA TYPHIMURIUM, Strain/Indicator: TA1535, Metabolic Activation: NONE, Method: SPOT TEST) “inactive; negative”; (Test System: AMES SALMONELLA TYPHIMURIUM, Strain/Indicator: TA1538, Metabolic Activation: NONE, Method: SPOT TEST) “inactive; negative”. The mutagenic call (Test System: AMES SALMONELLA TYPHIMURIUM, Strain/Indicator: TA2637, Metabolic Activation: NONE, Method: STANDARD PLATE) was “active; positive”.
Regarding `COC(=O)c1c2c(c3ccccc3c1O)OC(C)(C)C=C2`, the mutagenic call under setting [3] was “active; positive” and the mutagenic call (Test System: AMES SALMONELLA TYPHIMURIUM, Strain/Indicator: TA100, Metabolic Activation: RAT, LIVER, S-9, PCB, Method: PREINCUBATION) was “active; positive”.
With `COc1cccc(/C=C/c2ccc([N+](=O)[O-])cc2)c1`, the mutagenic call runs as follows: (Test System: AMES SALMONELLA TYPHIMURIUM, Strain/Indicator: TA98(NR), Metabolic Activation: NONE, Method: STANDARD PLATE) “active; positive”; (Test System: AMES SALMONELLA TYPHIMURIUM, Strain/Indicator: TA98(NR), Metabolic Activation: S-9, Method: STANDARD PLATE) “active; positive”; under setting [1], “active; positive”; (Test System: AMES SALMONELLA TYPHIMURIUM, Strain/Indicator: TA98, Metabolic Activation: S-9, Method: STANDARD PLATE) “active; positive”; (Test System: AMES SALMONELLA TYPHIMURIUM, Strain/Indicator: TA100 (NR), Metabolic Activation: NONE, Method: STANDARD PLATE) “active; positive”; (Test System: AMES SALMONELLA TYPHIMURIUM, Strain/Indicator: TA100 (NR), Metabolic Activation: S-9, Method: STANDARD PLATE) “active; positive”. Further, the mutagenic call by setting is: under setting [2], “active; positive”; (Test System: AMES SALMONELLA TYPHIMURIUM, Strain/Indicator: TA100, Metabolic Activation: S-9, Method: STANDARD PLATE) “active; positive”.
As for `Cn1cnc(N=O)c1-c1ccccc1`, the mutagenic call under setting [2] was “active; positive”.
Turning to `Cc1ccc2cccc([N+](=O)[O-])c2c1`, under setting [4], the mutagenic call is “active; positive”.
Consider `Cc1c2ccccc2cc2ccc3c(c12)C=CC(=O)C3=O`, for which the mutagenic call is “inactive; negative” (Test System: AMES SALMONELLA TYPHIMURIUM, Strain/Indicator: TA97A, Metabolic Activation: NONE, Method: PREINCUBATION); “active; positive” under setting [4]; “inactive; negative” under setting [3]; “inactive; negative” (Test System: AMES SALMONELLA TYPHIMURIUM, Strain/Indicator: TA102, Metabolic Activation: NONE, Method: PREINCUBATION); “inactive; negative” (Test System: AMES SALMONELLA TYPHIMURIUM, Strain/Indicator: TA104, Metabolic Activation: NONE, Method: PREINCUBATION).
In the case of `CC(C)(C)OC(=O)N/N=C/c1c[n+]([O-])c2ccccc2[n+]1[O-]`, the mutagenic call under setting [4] was “active; positive”; the mutagenic call (Test System: AMES SALMONELLA TYPHIMURIUM, Strain/Indicator: TA98, Metabolic Activation: S-9, Method: PREINCUBATION) was “active; positive”; the mutagenic call under setting [3] is “active; positive”; the mutagenic call (Test System: AMES SALMONELLA TYPHIMURIUM, Strain/Indicator: TA100, Metabolic Activation: S-9, Method: PREINCUBATION) is “active; positive”; the mutagenic call (Test System: E. COLI, Strain/Indicator: WP2 UVRA (PKM101), Metabolic Activation: NONE) is “active; positive”; the mutagenic call (Test System: E. COLI, Strain/Indicator: WP2 UVRA (PKM101), Metabolic Activation: S-9) was “active; positive”.

The values above are taken from PubChem BioAssay AID1259407 (Chemical Carcinogenesis Research Information System (CCRIS), 2018).
